Laboratory results as given in ChEMBL document CHEMBL3826872, “Synthesis of benzimidazole based thiadiazole and carbohydrazide conjugates as glycogen synthase kinase-3β inhibitors with anti-depressant activity” (Bioorg Med Chem Lett, 2016).
Activity calls are given as the source filed them. The rule behind the calls is not given here.

Experiments:
[1] = system: Mus musculus; experiment: Antidepressant activity in Swiss albino mouse assessed as duration of immobility at 50 mg/kg, po dosed 1 hr before test measured after 6 mins by tail suspension test (reference value: 183 sec)
[2] = target: Glycogen synthase kinase-3 beta (Homo sapiens, UniProt P49841); experiment: Inhibition of recombinant human N-terminal His-tagged GSK-3beta expressed in Escherichia coli using glycogen synthase-2 as substrate and ATP measured after 30 mins by Kinase-Glo luminescent kinase assay
Chain of Glycogen synthase kinase-3 beta (P49841 whole entry): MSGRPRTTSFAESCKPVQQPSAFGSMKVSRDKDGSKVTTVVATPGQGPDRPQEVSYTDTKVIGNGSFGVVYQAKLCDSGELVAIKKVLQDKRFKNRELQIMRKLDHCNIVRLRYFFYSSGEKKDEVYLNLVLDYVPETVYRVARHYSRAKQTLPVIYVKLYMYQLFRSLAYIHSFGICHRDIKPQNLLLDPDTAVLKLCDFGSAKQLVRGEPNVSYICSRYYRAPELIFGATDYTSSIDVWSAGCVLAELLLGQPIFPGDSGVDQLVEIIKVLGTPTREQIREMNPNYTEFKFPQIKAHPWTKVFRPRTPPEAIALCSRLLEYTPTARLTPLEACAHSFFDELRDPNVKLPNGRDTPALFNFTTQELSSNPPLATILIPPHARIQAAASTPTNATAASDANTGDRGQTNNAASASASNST

[3] = system: Mus musculus; experiment: Antidepressant activity in Swiss albino mouse assessed as reduction in duration of immobility at 50 mg/kg, po dosed 1 hr before test measured after 6 mins by forced swim test relative to control; format: functional, organism-based

Structure (SMILES)	Time [1] [s]	IC50 [2] [nM]	Activity [3]
Cc1nc2ccccc2n1Cc1nnc(Nc2ccccc2F)s1	120	76	Active
COc1ccc(C(=O)CCC(=O)NNC(=O)Cn2c(C)nc3ccccc32)cc1	–	561	–
Cc1nc2ccccc2n1Cc1nnc(Nc2ccccc2)s1	–	157	–
Cc1nc2ccccc2n1Cc1nnc(Nc2ccc(Br)cc2)s1	–	173	–
Cc1nc2ccccc2n1Cc1nnc(Nc2ccccc2Br)s1	–	190	–
Cc1nc2ccccc2n1Cc1nnc(Nc2ccc(Cl)cc2)s1	–	145	–
COc1ccc(Nc2nnc(Cn3c(C)nc4ccccc43)s2)cc1	–	151	–
Cc1nc2ccccc2n1Cc1nnc(NC2CCCCC2)s1	–	406	–
Cc1nc2ccccc2n1CC(=O)NNC(=O)c1ccc[nH]1	–	124	–
Cc1nc2ccccc2n1Cc1nnc(Nc2ccccc2Cl)s1	–	122	–
Cc1nc2ccccc2n1CC(=O)NNC(=O)Cc1ccc(Cl)cc1	–	131	–
Cc1nc2ccccc2n1CC(=O)NNC(=O)Cc1cc2ccccc2[nH]1	–	135	–
Cc1nc2ccccc2n1Cc1nnc(Nc2ccc(F)cc2)s1	–	134	–
COc1ccc(CC(=O)NNC(=O)Cn2c(C)nc3ccccc32)cc1	–	379	–
Cc1ccccc1CC(=O)NNC(=O)Cn1c(C)nc2ccccc21	168	92	–
Cc1nc2ccccc2n1CC(=O)NNC(=O)c1c[nH]c2ccccc12	–	148	–
Cc1nc2ccccc2n1Cc1nnc(Nc2ccc([N+](=O)[O-])cc2)s1	174	107	–
Cc1nc2ccccc2n1CC(=O)NNC(=O)Cc1cccc2ccccc12	–	157	–
Cc1nc2ccccc2n1CC(=O)NNC(=O)CCC(=O)c1ccc(Oc2ccccc2)cc1	135	80	Active
CCOc1ccc(Nc2nnc(Cn3c(C)nc4ccccc43)s2)cc1	–	293	–
Cc1nc2ccccc2n1CC(=O)NNC(=O)Cc1ccc([N+](=O)[O-])cc1	–	205	–
COc1ccccc1Nc1nnc(Cn2c(C)nc3ccccc32)s1	–	184	–
CCCCNc1nnc(Cn2c(C)nc3ccccc32)s1	–	582	–
Cc1nc2ccccc2n1CC(=O)NNC(=O)C(=O)c1c[nH]c2ccccc12	105	72	Active
CNCCC(Oc1ccc(C(F)(F)F)cc1)c1ccccc1 (centres undefined) [FLUOXETINE]	153	–	–
Cc1nc2ccccc2n1CC(=O)NNC(=O)Cc1ccccc1	–	105	–
